Data from ChEMBL document CHEMBL6182884, “Synthesis and structure-activity evaluation of a series of novel tricyclic STING activators” (Eur J Med Chem, 2025).

target: Stimulator of interferon genes protein (Homo sapiens, UniProt Q86WV6); test: Activation of human STING R232 variant transfected in HEK293T cells expressing ISRE.ISG54 luciferase reporter assessed as secretory reporter gene activity by measuring luciferase level incubated for 20 hrs by luminometer; format: cell-based
Sequence (Q86WV6 whole entry, looked up): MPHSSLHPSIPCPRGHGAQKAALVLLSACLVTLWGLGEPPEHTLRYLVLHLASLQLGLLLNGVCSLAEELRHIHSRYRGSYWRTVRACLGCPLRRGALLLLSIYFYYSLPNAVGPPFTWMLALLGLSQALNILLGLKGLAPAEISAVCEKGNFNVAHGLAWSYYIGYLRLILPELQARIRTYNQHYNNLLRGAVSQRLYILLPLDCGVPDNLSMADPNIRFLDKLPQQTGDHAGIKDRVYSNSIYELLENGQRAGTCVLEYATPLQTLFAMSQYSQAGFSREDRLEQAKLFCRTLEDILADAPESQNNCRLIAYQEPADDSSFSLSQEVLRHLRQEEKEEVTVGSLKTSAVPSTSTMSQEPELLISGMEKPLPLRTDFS

SMILES | EC50 [µM]
C[C@H]1Sc2ccc(C(=O)NCc3cc4cc(F)ccc4o3)cc2-n2c(-c3ccc(F)cc3)nnc21 | 1.09
O=C(NCc1c(F)cc(F)cc1F)c1ccc2c(c1)-n1c(nnc1-c1ccccc1)CS2 | 2.08
CC1Sc2ncc(C(=O)NCc3cc4ccccc4o3)cc2-n2c(-c3ccccc3)nnc21 (racemic) | 0.414
CC1Sc2ccc(C(=O)NCc3c(F)cc(F)cc3F)cc2-n2c(Cc3ccccc3)nnc21 (racemic) | 1.54
CC1Sc2ccc(C(=O)NCc3c(F)cc(F)cc3F)cc2-n2c(-c3ccc(F)cc3)nnc21 (racemic) | 0.373
Cc1cccc(-c2nnc3n2-c2cc(C(=O)NCc4c(F)cc(F)cc4F)ccc2SC3C)c1 (racemic) | 1.56
CC1Sc2ccc(C(=O)NCc3c(F)cc(F)cc3F)cc2-n2c(-c3cccc(F)c3)nnc21 (racemic) | 2.88
CC1Sc2ccc(C(=O)NCc3c(F)cc(F)cc3F)cc2-n2c(-c3ccncc3)nnc21 (racemic) | 1.63
CC1Sc2ccc(C(=O)NCc3c(F)cc(F)cc3F)cc2-n2c(-c3ccccc3F)nnc21 (racemic) | 0.804
CC1Sc2ccc(C(=O)NCc3c(F)cc(F)cc3F)cc2-n2c(-c3ccc(Cl)cc3F)nnc21 (racemic) | 1.97
Cc1ccc(-c2nnc3n2-c2cc(C(=O)NCc4c(F)cc(F)cc4F)ccc2SC3C)cc1 (racemic) | 3.81
CC1Sc2ncc(C(=O)NCc3cc4cc(F)ccc4o3)cc2-n2c(-c3ccc(F)cc3)nnc21 (racemic) | 0.111

Now those with a lower EC50, led by results:

EC50 [µM] | SMILES
0.065 | CC1Sc2ccc(C(=O)NCc3cc4ccc(F)cc4o3)cc2-n2c(-c3ccc(F)cc3)nnc21 (racemic)
0.053 | CC1Sc2ccc(C(=O)NCc3cc4cc(F)ccc4o3)cc2-n2c(-c3ccc(F)cc3F)nnc21 (racemic)
0.048 | CC1Sc2ccc(C(=O)NCc3cc4cc(F)ccc4o3)cc2-n2c(-c3ccc(F)cc3)nnc21 (racemic)
0.045 | CC1Sc2ccc(C(=O)NCc3cc4cc(F)c(F)cc4o3)cc2-n2c(-c3ccc(F)cc3)nnc21 (racemic)
0.04 | C[C@@H]1Sc2ccc(C(=O)NCc3cc4cc(F)ccc4o3)cc2-n2c(-c3ccc(F)cc3)nnc21
